Data: patent publication US20080187937A1, “Method For Measuring Dynamics Of Self-Assembling Systems Of Biological Molecules In Vivo And Uses For Discovering Or Evaluating Therapeutic Agents” (priority 2004, published 2008)
“Also recorded” adds a separate entry of the source.

Tests used:
[1] = tested on: SW1573 human lung cancer cells; assay: 2H2O stable isotope incorporation into tubulin dimers and microtubule polymers in cultured cells; format: cell-based
Protocol: To determine whether biosynthetic labeling with ^2H2O can reveal MTPA effects on microtubule dynamics in actively proliferating cells, SW1573 human lung cancer cells were cultured and labeled during exponential growth with culture media containing 4% ^2H2O for 2, 6, 12, 24 and 36 hr, respectively. Tubulin dimer and polymer fractions were isolated from post-nuclear supernatants, and tubulin was purified from each fraction to ≧90% purity as determine by SDS-PAGE. After acid hydrolysis, amino acids were derivatized for GC/MS analysis with negative chemical ionization, and ^2H-label incorporation into the alanine derivative was quantified as the increase over natural abundance of the (M+1) mass isotopomer (“^2H—enrichment”; FIG. 3). […] The data support that in actively dividing cells, tubulin dimers and polymers are in a kinetic equilibrium on a time scale of hours. […] This indicates a substantial inhibition of ^2H—tubulin dimer flux into polymer, reflective of the ability of paclitaxel to stabilize microtubules and thus to prevent dynamic instability.

[2] = tested on: SW1573 human lung cancer cells implanted into nude mice; assay: 2H label incorporation into tubulin dimers and polymers in implanted SW1573 tumors in vivo
Protocol: (§1) The tumors were allowed to grow to approximately 1000 mm^3 […]; mice were then injected intraperitoneally with increasing doses of paclitaxel. ^2H2O (8%) in drinking water was administered for a 24 hr period, resulting in about 5% ^2H enrichment in body water (the balance being metabolic water). Animals were sacrificed 24 hours after drug treatment, and tumor tissue was removed for analysis of ^2H—label incorporation into tubulin dimers and polymers (FIG. 4).

[3] = tested on: MCF-7 human breast cancer cells implanted into nude mice; assay: 2H label incorporation into tubulin dimers and polymers in implanted MCF-7 tumors in vivo
Protocol: as §1
Qualitatively similar effects of paclitaxel were also seen in implanted MCF-7 tumors, though the amount of ^2H—label incorporation was lower than in SW1573 tumors (FIG. 4B).

[4] = tested on: SW1573 human lung cancer cells implanted into nude mice; assay: Microtubule dynamics compared to de novo DNA synthesis (cell proliferation) in SW1573 tumors; format: in vivo; settings: varying doses of paclitaxel; 2H2O for 24 hours (FIG. 5A)
Description: (§2) Microtubule dynamics were expressed as (^2H enrichment in polymer)/(^2H enrichment in dimer). Inhibition of de novo DNA synthesis was quantified as the reduction in ^2H label incorporation into tumor cell DNA. […]
(§3) Various factors can interfere with the actions of paclitaxel in tumors, including alterations in tubulin isotype content, efflux pumps, and in vivo drug metabolism. Regardless of these factors, inhibition of microtubule dynamics, if related to the antiproliferative activity of MTPAs in vivo, should correlate with inhibition of cell proliferation. […] Thus, the inhibition of microtubule dynamics appeared to have a measurable impact on and relation to the in vivo antiproliferative action of MTPAs.

[5] = tested on: MCF-7 human breast cancer cells implanted into nude mice; assay: Microtubule dynamics compared to de novo DNA synthesis (cell proliferation) in MCF-7 tumors; format: in vivo; settings: varying doses of paclitaxel; 2H2O for 24 hours (FIG. 5B)
Description: as §2, §3

microtubules = settings: fold lower than maximum tolerated therapeutic dose
[6] = tested on: sciatic nerve microtubules; assay: Densitometric analysis of free tubulin and microtubule abundance in sciatic nerve; settings: tumor-bearing mice (FIG. 6B)
Protocol: (§4) In order to evaluate neurotoxic effects of paclitaxel, the sciatic nerve was isolated from tumor-bearing mice and ^2H label incorporation into free tubulin was compared with ^2H label incorporation into polymerized microtubuies (FIG. 6). […] To explore this effect further, net changes in the abundance of unpolymerized free tubulin and microtubules was assessed by densitometric analysis (FIG. 6B).

[7] = tested on: sciatic nerve microtubules; assay: Sciatic nerve microtubule dynamics (2H label incorporation into free tubulin and polymerized microtubules); settings: higher doses of paclitaxel; tumor-bearing mice (FIG. 6A)
Protocol: as §4

[8] = at ≧5 mg/kg i.p., 2H2O for 24 hours (FIG. 4A)
[9] = increasing doses i.p., 24 hr 2H2O (8%) in drinking water
[10] = at ≧5 mg/kg i.p., 2H2O for 24 hours (FIG. 4B)

## CC(=O)O[C@H]1C(=O)[C@@]2(C)[C@H]([C@H](OC(=O)c3ccccc3)[C@]3(O)C[C@H](OC(=O)[C@H](O)[C@@H](NC(=O)c4ccccc4)c4ccccc4)C(C)=C1C3(C)C)[C@]1(OC(C)=O)CO[C@@H]1C[C@@H]2O [paclitaxel]
[1]; 0.4 µM paclitaxel, 4% 2H2O, 36 hours (FIG. 3B)
  2H-enrichment in labeled polymers: reduced ^2H-enrichment in labeled polymers
[1]; media containing 4% 2H2O, up to 36 hr
  reduction of rate of 2H incorporation into polymers compared to rate of label incorporation into the dimer: 75%
[2]; [8]
  de novo synthesis of tubulin dimer: increased de novo synthesis of tubulin dimer
  label incorporation into polymer: inhibited label incorporation into polymer
[2]; [9]
  fractional synthesis of tubulin dimers: fractional synthesis of tubulin dimers increased
  incorporation of 2H-tubulin into microtubules: decreased incorporation of ^2H—tubulin into microtubules in a dose-dependent manner
[3]; 5 and 10 mg/kg doses, compared with SW1573 tumors
  paclitaxel-dependent reduction of 2H-label polymer: less pronounced, albeit statistically significant
[3]; [10]
  de novo synthesis of tubulin dimer: increased de novo synthesis of tubulin dimer
  label incorporation into polymer: inhibited label incorporation into polymer
[3]; increasing doses i.p., 24 hr 2H2O
  upregulation of tubulin fractional synthesis over baseline: no significant paclitaxel-induced upregulation of tubulin fractional synthesis over baseline
[4]
  relation between inhibition of microtubule dynamics and inhibition of de novo DNA synthesis (tumor cell proliferation): strong relationship; also recorded: strong correlation between inhibition of microtubule dynamic instability and reduction in cell proliferation
[5]
  relation between inhibition of microtubule dynamics and inhibition of de novo DNA synthesis (tumor cell proliferation): strong relationship; also recorded: strong correlation between inhibition of microtubule dynamics and reduction in cell proliferation
microtubules
  doses with significant effects on microtubule dynamics, relative to the maximum tolerated therapeutic dose: up to 30 fold
[6]
  amount of free tubulin dimers (sciatic nerve, densitometry): slight decrease in free tubulin dimers
[7]
  2H label incorporation into polymers (sciatic nerve): increased the label incorporation into polymers
  2H labeling of free tubulin (sciatic nerve): slightly decreasing labeling of free tubulin
